Patent US11890288B2, “Sulfonamide or sulfinamide compound having effect of inducing BRD4 protein degradation and pharmaceutical use thereof” (MITSUBISHI TANABE PHARMA CORPORATION, priority 2020, dated 2024)

Experiments:
Format in all cases: cell-based
[1] = test system: human fibrosarcoma HT1080 cell; assay: Cytotoxic action on HT1080 cells (WST-8, 96 hr); details: HT-1080, HT1080, 96 hr
Description: (§1) The cytotoxic action of the compound of the present invention against human cancer cells was evaluated in vitro. In this experiment, (+)-JQ1 (Nature volume 468, pages 1067-1073 (23 Dec. 2010)) known to have an inhibitory activity on the binding of BRD4 protein and a ligand therefor was used as a positive control drug. Respective cells were suspended in 10% FBS/RPMI1640, seeded in a 96 well plate and cultured at 5% CO2, 37° C. overnight. A test compound dissolved in DMSO was diluted with 10% FBS/RPMI1640 and added and the cells were further cultured for 96 hr. After culturing, the viable cell number was measured using a cell number measurement WST-8 kit (Kishida Chemical Co., Ltd.). As a control, the measurement was performed under conditions free of the test compound. The cytotoxic activity of the compound of the present invention against human prostate cancer LNCaP cells is shown in IC50 value in Table 1. The IC50 value is a concentration of the compound showing 50% cell survival rate when the cell survival rate thereof under compound untreated condition is 100%. It was calculated from the straight line connecting the cell survival rate at two points enclosing the 50% cell survival rate and the compound concentration. […]

[2] = test system: human diffuse large B-cell lymphoma SU-DHL-6 cell; assay: Cytotoxic action on SU-DHL-6 cells (WST-8, 96 hr); details: SU-DHL-6, 96 hr
Description: as §1

[3] = test system: human glioma U-87 MG cell; assay: Cytotoxic action on U-87 MG cells (WST-8, 96 hr)
Description: as §1

COC(=O)C[C@@H]1N=C(c2ccc(-c3ccc(C(=O)NCc4ccc(S(=O)(=O)Nc5ccc(C)c6c(C#N)c[nH]c56)cc4)cc3)cc2)c2c(sc(C)c2C)-n2c(C)nnc21 [Example 1, methyl [(6S)-4-{4′-[({4-[(3-cyano-4-methyl-1H-indol-7-yl)sulfamoyl]phenyl}methyl)carbamoyl][1,1′-biphenyl]-4-yl}-2,3,9-trimethyl-6H-thieno[3,2-f][1,2,4]triazolo[4,3-a][1,4]diazepin-6-yl]acetate]
IC50 [1]: 13 nM | IC50 [2]: 0.44 nM | IC50 [3]: 6 nM
